Experimental data reported in ChEMBL document CHEMBL5380842, “Discovery of a Potent and Selective CCR8 Small Molecular Antagonist IPG7236 for the Treatment of Cancer” (J Med Chem, 2023).
In brackets after ≈: the same amount, converted by molar mass.

What was measured:
[1] = Volume of distribution at steady state in ICR mouse at 1 mg/kg, iv; type: ADME, organism-based; conditions: in vivo, read-out: Vdss
[2] = Unbound fraction in mouse plasma; type: ADME, cell-free
Cytochrome P450 2D6 = Cytochrome P450 2D6 (Homo sapiens, UniProt P10635); test: Inhibition of CYP2D6 (unknown origin); type: ADME
[3] = AUClast in Cynomolgous monkey at 1 mg/kg, iv; type: ADME, organism-based, Macaca fascicularis; set-up: dose 1 mg/kg, route iv; conditions: cynomolgus monkey, in vivo
[4] = Stability in mouse liver microsomes assessed as half life; type: ADME, Microsome
Cytochrome P450 2B6 = target: T1, Cytochrome P450 2B6 (Homo sapiens, UniProt P20813); test: Inhibition of CYP2B6 (unknown origin); type: ADME
T1 sequence (P20813 whole entry): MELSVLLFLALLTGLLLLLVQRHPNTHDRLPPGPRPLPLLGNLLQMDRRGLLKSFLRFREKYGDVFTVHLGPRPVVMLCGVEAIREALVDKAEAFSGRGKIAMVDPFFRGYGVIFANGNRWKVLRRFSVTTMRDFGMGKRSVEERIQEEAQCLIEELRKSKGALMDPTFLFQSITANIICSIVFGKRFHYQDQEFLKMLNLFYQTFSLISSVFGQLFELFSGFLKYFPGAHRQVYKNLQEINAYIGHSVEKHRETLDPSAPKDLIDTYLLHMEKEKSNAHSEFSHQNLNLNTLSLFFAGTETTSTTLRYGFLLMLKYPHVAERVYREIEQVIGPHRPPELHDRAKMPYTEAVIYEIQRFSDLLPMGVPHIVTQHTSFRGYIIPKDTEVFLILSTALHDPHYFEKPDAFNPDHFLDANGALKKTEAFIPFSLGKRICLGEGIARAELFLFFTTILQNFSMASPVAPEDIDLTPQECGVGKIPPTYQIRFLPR

[5] = Tmax in Beagle dog at 10 mg/kg, po; type: ADME, organism-based, Canis lupus familiaris; conditions: in vivo
[6] = Oral bioavailability in Sprague-Dawley rat at 50 mg/kg; type: ADME, organism-based; conditions: in vivo
MDA-MB-231 [7] = test: Antitumor activity against human MDA-MB-231 cells xenografted in humanized NCG mouse assessed as tumor growth inhibition at 10 mg/kg, po bid relative to control; type: functional; conditions: read-out: TGI
MDA-MB-231 [8] = test: Antitumor activity against human MDA-MB-231 cells xenografted in humanized NCG mouse assessed as […] in tumor-infiltrating CD8+ T cells administered intragastrically twice everyday; type: functional, cell-based; conditions: dose 2-50 mg/kg, route ig
[9] = AUClast in Beagle dog at 10 mg/kg, po; type: ADME, organism-based, Canis lupus familiaris; set-up: dose 10 mg/kg, route po; conditions: in vivo
[10] = Apparent permeability of compound across basal to apical side in human Caco2 cells at 10 uM incubated for 120 mins by LC-MS/MS analysis; conditions: Caco-2
[11] = Cytotoxicity against human primary hepatocytes; type: toxicity, cell-based, Hepatocyte
[12] = Tmax in Sprague-Dawley rat at 50 mg/kg, po; type: ADME, organism-based; conditions: in vivo
[13] = Clearance in Beagle dog at 3 mg/kg, iv; type: ADME, organism-based, Canis lupus familiaris; conditions: in vivo
[14] = Stability in human hepatocytes assessed as half life; type: ADME, cell-based, Hepatocyte
[15] = Volume of distribution at steady state in Cynomolgous monkey at 1 mg/kg, iv; type: ADME, organism-based, Macaca fascicularis; conditions: cynomolgus monkey, in vivo, read-out: Vdss
[16] = AUClast in Cynomolgous monkey at 50 mg/kg, po; type: ADME, organism-based, Macaca fascicularis; set-up: dose 50 mg/kg, route po; conditions: cynomolgus monkey, in vivo
[17] = AUClast in Sprague-Dawley rat at 50 mg/kg, po; type: ADME, organism-based; set-up: dose 50 mg/kg, route po; conditions: in vivo
[18] = target: Voltage-gated inwardly rectifying potassium channel KCNH2 (Homo sapiens, UniProt Q12809); test: Inhibition of hERG; type: toxicity
MDA-MB-231 [19] = test: Antitumor activity against human MDA-MB-231 cells xenografted in humanized NCG mouse assessed as tumor growth inhibition at 50 mg/kg, IG bid measured after 22 days relative to control; type: functional; conditions: MDA-MB-231, po, 528 h, time 22 day, read-out: TGI
[20] = AUClast in ICR mouse at 1 mg/kg, iv; type: ADME, organism-based; set-up: dose 1 mg/kg, route iv; conditions: in vivo
MDA-MB-231 [21] = test: Antitumor activity against human MDA-MB-231 cells xenografted in humanized NCG mouse assessed as tumor growth inhibition at 10 mg/kg, IG bid measured after 22 days relative to control; type: functional; conditions: MDA-MB-231, po, 528 h, time 22 day, read-out: TGI
[22] = Oral bioavailability in Beagle dog at 10 mg/kg; type: ADME, organism-based, Canis lupus familiaris; conditions: in vivo
Cytochrome P450 2C19 = Cytochrome P450 2C19 (Homo sapiens, UniProt P33261); test: Inhibition of CYP2C19 (unknown origin); type: ADME
[23] = AUClast in Beagle dog at 3 mg/kg, iv; type: ADME, organism-based, Canis lupus familiaris; set-up: dose 3 mg/kg, route iv; conditions: in vivo
MDA-MB-231 [24] = test: Antitumor activity against human MDA-MB-231 cells xenografted in humanized NCG mouse assessed as decrease in tumor-infiltrating Treg cells administered intragastrically twice everyday; type: functional, cell-based; conditions: dose 2-50 mg/kg, route ig
[25] = Toxicity in humanized NCG mouse xenografted with human MDA-MB-231 cells administered intragastrically twice everyday; conditions: in vivo, po
[26] = Tmax in ICR mouse at 50 mg/kg, po; type: ADME, organism-based; conditions: in vivo
MDA-MB-231 [27] = test: Synergistic antitumor activity against human MDA-MB-231 cells xenografted in humanized NCG mouse assessed as tumor growth inhibition at 10 mg/kg, po bid in presence of PD-1 antibody relative to control; type: functional; conditions: read-out: TGI
[28] = Unbound fraction in human plasma; type: ADME, cell-free
[29] = Oral bioavailability in Cynomolgous monkey at 50 mg/kg; type: ADME, organism-based, Macaca fascicularis; conditions: cynomolgus monkey, in vivo
[30] = Clearance in Sprague-Dawley rat at 1 mg/kg, iv; type: ADME, organism-based; conditions: in vivo
[31] = Stability in rat liver microsomes assessed as half life; type: ADME, Microsome
Cytochrome P450 2C8 = target: T2, Cytochrome P450 2C8 (Homo sapiens, UniProt P10632); test: Inhibition of CYP2C8 (unknown origin); type: ADME
T2 sequence (P10632 whole entry): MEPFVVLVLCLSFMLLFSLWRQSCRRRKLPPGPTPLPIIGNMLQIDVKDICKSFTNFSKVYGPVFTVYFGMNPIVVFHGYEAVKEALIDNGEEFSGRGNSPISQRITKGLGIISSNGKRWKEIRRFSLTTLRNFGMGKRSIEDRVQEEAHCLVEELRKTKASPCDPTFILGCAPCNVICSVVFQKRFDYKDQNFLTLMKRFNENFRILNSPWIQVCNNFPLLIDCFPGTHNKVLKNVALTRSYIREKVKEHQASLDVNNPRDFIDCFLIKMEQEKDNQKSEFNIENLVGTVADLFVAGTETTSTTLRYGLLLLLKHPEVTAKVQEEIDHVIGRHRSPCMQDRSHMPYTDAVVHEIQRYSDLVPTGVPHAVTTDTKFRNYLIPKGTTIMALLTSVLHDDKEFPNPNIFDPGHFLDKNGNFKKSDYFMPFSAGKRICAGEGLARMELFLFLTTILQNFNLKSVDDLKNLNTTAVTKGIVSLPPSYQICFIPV

[32] = Apparent permeability of compound across apical to basal side in human Caco2 cells at 10 uM incubated for 120 mins by LC-MS/MS analysis; conditions: Caco-2
[33] = Clearance in ICR mouse at 1 mg/kg, iv; type: ADME, organism-based; conditions: in vivo
[34] = Volume of distribution at steady state in Beagle dog at 3 mg/kg, iv; type: ADME, organism-based, Canis lupus familiaris; conditions: in vivo, read-out: Vdss
[35] = AUClast in Sprague-Dawley rat at 1 mg/kg, iv; type: ADME, organism-based; set-up: dose 1 mg/kg, route iv; conditions: in vivo
[36] = Tmax in Cynomolgous monkey at 50 mg/kg, po; type: ADME, organism-based, Macaca fascicularis; conditions: cynomolgus monkey, in vivo
[37] = Solubility of compound in PBS at pH 7.4 incubated for 2 hrs by LC-MS/MS analysis; type: physicochemical

Cytochrome P450 2D6, sequence (P10635 whole entry): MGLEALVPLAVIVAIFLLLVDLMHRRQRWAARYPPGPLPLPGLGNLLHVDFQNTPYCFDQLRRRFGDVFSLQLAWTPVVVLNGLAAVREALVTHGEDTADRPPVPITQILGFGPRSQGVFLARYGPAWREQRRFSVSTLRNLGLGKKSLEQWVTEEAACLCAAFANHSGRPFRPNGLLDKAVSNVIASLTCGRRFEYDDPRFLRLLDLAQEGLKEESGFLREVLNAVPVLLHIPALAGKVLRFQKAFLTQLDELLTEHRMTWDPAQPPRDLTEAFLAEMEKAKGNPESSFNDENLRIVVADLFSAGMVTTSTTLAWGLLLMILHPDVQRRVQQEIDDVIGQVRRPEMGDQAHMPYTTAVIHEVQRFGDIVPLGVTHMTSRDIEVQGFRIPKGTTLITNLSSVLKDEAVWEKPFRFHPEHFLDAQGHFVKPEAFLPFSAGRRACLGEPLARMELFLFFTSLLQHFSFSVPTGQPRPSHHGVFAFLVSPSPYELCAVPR
Voltage-gated inwardly rectifying potassium channel KCNH2, sequence (Q12809 whole entry): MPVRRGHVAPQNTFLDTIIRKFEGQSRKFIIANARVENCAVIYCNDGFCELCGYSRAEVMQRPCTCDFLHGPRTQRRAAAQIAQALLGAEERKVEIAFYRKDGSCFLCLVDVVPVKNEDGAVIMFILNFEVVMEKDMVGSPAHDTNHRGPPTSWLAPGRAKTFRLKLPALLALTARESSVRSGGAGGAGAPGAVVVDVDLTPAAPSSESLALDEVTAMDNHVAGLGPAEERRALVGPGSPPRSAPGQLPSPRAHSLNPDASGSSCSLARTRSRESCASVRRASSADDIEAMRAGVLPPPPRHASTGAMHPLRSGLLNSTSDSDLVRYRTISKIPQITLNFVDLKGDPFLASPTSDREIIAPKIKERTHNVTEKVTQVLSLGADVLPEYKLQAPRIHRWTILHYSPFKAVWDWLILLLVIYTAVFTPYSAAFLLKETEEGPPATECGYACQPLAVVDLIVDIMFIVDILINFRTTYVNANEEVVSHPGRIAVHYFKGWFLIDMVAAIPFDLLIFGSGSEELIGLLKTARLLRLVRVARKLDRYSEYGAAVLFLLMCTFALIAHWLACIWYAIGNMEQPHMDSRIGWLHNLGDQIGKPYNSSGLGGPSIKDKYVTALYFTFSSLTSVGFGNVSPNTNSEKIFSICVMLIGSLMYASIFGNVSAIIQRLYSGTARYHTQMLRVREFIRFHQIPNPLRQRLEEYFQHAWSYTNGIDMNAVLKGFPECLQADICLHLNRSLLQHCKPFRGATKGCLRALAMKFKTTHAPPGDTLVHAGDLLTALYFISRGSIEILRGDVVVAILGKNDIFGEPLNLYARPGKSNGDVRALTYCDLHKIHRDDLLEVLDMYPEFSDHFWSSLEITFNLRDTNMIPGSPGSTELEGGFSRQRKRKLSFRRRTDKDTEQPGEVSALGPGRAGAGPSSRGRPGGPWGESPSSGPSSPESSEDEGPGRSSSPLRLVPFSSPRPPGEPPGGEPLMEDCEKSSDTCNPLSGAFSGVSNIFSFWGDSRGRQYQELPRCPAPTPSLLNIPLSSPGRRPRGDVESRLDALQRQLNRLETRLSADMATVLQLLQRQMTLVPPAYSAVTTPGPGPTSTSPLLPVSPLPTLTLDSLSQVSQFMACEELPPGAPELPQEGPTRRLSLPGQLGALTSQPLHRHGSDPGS
Cytochrome P450 2C19, sequence (P33261 whole entry): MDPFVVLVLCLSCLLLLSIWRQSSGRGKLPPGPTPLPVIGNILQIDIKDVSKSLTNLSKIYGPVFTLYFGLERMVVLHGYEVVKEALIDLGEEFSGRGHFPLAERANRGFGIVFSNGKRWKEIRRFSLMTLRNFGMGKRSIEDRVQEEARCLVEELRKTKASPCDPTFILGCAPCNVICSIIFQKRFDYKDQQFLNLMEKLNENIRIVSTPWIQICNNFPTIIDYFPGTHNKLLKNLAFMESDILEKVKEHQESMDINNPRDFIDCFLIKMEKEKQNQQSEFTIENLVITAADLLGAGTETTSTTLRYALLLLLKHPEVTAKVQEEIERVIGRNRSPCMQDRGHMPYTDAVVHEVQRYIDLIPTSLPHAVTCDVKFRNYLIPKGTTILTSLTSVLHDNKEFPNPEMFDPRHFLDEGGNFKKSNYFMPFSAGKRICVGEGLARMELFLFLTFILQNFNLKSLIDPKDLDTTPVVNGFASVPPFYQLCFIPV

Cc1cc(S(=O)(=O)N[C@H](C)C2CCN(C)CC2)ccc1NC(=O)c1ccccc1C
Vd [1]: 2.2 L/kg | fraction unbound [2]: 0.449 | IC50 (Cytochrome P450 2D6): > 10 µM | AUC(0-t) [3]: 538 ng·h/mL | half-life [4]: 0.433 h | IC50 (Cytochrome P450 2B6): > 10 µM | Tmax [5]: 0.5 h | bioavailability [6]: 66% | inhibition in vivo at 10 mg/kg (MDA-MB-231 [7]): 47.2% | Activity (MDA-MB-231 [8]): Dose-Dependent Effect | AUC(0-t) [9]: 6480 ng·h/mL | Papp B→A at 2 h, 10 µM [10]: 17.2 ×10⁻⁶ cm/s | IC50 [11]: > 150 µM | Tmax [12]: 3.3 h | clearance [13]: 14.2 mL/min/kg | half-life [14]: 8.7 h | Vd [15]: 2.8 L/kg | AUC(0-t) [16]: 28900 ng·h/mL | AUC(0-t) [17]: 13600 ng·h/mL | IC50 [18]: > 30 µM | inhibition in vivo at 50 mg/kg (MDA-MB-231 [19]): 55.6% | AUC(0-t) [20]: 666 ng·h/mL | inhibition in vivo at 10 mg/kg (MDA-MB-231 [21]): 28.3% | bioavailability [22]: 55% | IC50 (Cytochrome P450 2C19): > 10 µM | AUC(0-t) [23]: 3550 ng·h/mL | Activity (MDA-MB-231 [24]): Dose-Dependent Effect | MED [25]: 10 mg/kg | Tmax [26]: 0.5 h | inhibition in vivo at 10 mg/kg (MDA-MB-231 [27]): 73.8% | fraction unbound [28]: 0.358 | bioavailability [29]: 105% | clearance [30]: 40.9 mL/min/kg | half-life [31]: 2.5 h | IC50 (Cytochrome P450 2C8): > 10 µM | Papp A→B at 2 h, 10 µM [32]: 3.7 ×10⁻⁶ cm/s | clearance [33]: 24.5 mL/min/kg | Vd [34]: 2.2 L/kg | AUC(0-t) [35]: 395 ng·h/mL | Tmax [36]: 2.3 h | solubility at 2 h [37]: 254 µM (≈ 109 µg/mL)
